In US20180289709A1, “METHODS OF TREATING INFLAMMATION” (priority 2010, published 2018):

Test system: primary mouse lung fibroblasts (MLFs)
Conditions: 1 μM

In the case of `CC[C@@H]1C(=O)N(C)c2cnc(Nc3ccc(C(=O)NC4CCN(C)CC4)cc3OC)nc2N1C1CCCC1` [BI 2536], the “viral replication (luciferase activity in reporter cells)” value is reported as “elevated replication”.
